Structures are written as SMILES. Where a name gives a salt, the structure may show the parent alone.

The subject of series [1] is mice. Conditions: cited from earlier work.
The conditions of series [2]: cited from earlier work.
A short description of series [3]: Distribution, metabolism and excretion of cocaine.
The test system of series [4] is mucous membranes. Description: Topical anesthesia of mucous membranes by pledget administration. Conditions: applied to mucous membranes by pledget, depends on concentration, vascularity. Format: in vivo, human. How it is done: When applied to mucous membranes by pledget administration, topical anesthesia develops rapidly and persists for 30 minutes or longer depending on the concentration of cocaine HCl solution used, the dose, and on the vascularity of the tissue.

The test system of series [5] is experimental animals. Conditions: cited from earlier work.

Take `COC(=O)[C@H]1[C@@H](OC(=O)c2ccccc2)C[C@@H]2CC[C@H]1N2C` [Cocaine, methyl (1R,2R,3S,5S)-3-(benzoyloxy)-8-methyl-8-azabicyclo[3.2.1]octane-2-carboxylate]: the “potency in producing increases in locomotor activity” value in series [1] (cocaine versus cocaethylene) was “more potent than cocaethylene”. The “metabolism by hydrolysis to ecgonine” value in series [2] (by carboxylesterase-2) is given as “minimally metabolized”. The “fraction metabolized by hydrolysis to benzoylecgonine” value in series [2] (by hepatic carboxylesterase-1) was 40-45%. Further, the “fraction metabolized by hydrolysis to ecgonine methyl ester” value in series [2] (by plasma butyrylcholinesterase and hepatic carboxylesterase-2) was 40-45%. In series [2] (by the CYP3A4 enzyme system), the “fraction N-demethylated to norcocaine” value was 5-10%. The volume of distribution result in series [2] (in vivo) is reported as “approximately 2 L/kg”. Besides, the “fraction eliminated unchanged in the urine” value in series [3] (human, urine) is less than 5%.

`COC(=O)[C@H]1[C@@H](OC(=O)c2ccccc2)C[C@@H]2CC[C@H]1N2C` [cocaine HCl, methyl (1R,2R,3S,5S)-3-(benzoyloxy)-8-methyl-8-azabicyclo[3.2.1]octane-2-carboxylate hydrochloride]: the “persistence of topical anesthesia” value in series [4] was not below 30 min.

In the case of `CCOC(=O)[C@H]1[C@@H](OC(=O)c2ccccc2)C[C@@H]2CC[C@H]1N2C` [ethyl cocaine, ethyl (1R,2R,3S,5S)-3-(benzoyloxy)-8-methyl-8-azabicyclo[3.2.1]octane-2-carboxylate], in series [1] (cocaine versus cocaethylene), the “potency in producing convulsions” value is on record as “equipotent”. For the same molecule, the “potency in producing lethality” value in series [1] (ethyl cocaine versus cocaine) was “more potent than cocaine”. Besides, in series [5], the “elimination half-life (comparative)” value is reported as “longer elimination half-life” and the “volume of distribution (comparative)” value is given as “larger volume of distribution”. In addition, the toxicity and arrhythmogenicity entry in series [5] (versus cocaine or ethanol alone) is “more toxic and arrhythmogenic than either substance alone”.

Regarding `COC(=O)[C@H]1[C@@H](OC(=O)c2ccccc2)C[C@@H]2CC[C@H]1N2` [norcocaine], the “total systemic exposure relative to cocaine” value in series [3] (in vivo) is reported as “less than one percent”.

The values are drawn from patent US20210069173A1, “PREPARATION OF (-)-COCAINE HYDROCHLORIDE” (Cody Laboratories, Inc., priority 2018, published 2021).
